Values after ≈ are worked out from the molar mass of the structure shown. Values joined by “and” are separate entries in the source; they are usually repeats but may differ in a detail not shown here. Identical values can stand only once.
Tests used:
C. albicans = test: Fluconazole MIC given as descriptor of azole resistant clinical isolates (Table 10); assay type: cell-based; details: Candida albicans
Cryptococcus neoformans [1] = test: CLSI broth microdilution MIC (Example 4); assay type: cell-based
Procedure, shortened: (§1)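 CLSI broth microdilution in RPMI 1640 with two-fold compound dilutions and inoculum about 2×10^3 cells/mL. Plates incubated 35° C for 24-48 hours; MICs determined in duplicate, with a third test when the duplicates differed.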

Candida albicans [2] = test: CLSI broth microdilution MIC (Example 4); assay type: cell-based; details: for antifungal activity against the two isolates of Candida albicans: summary in words
Procedure, shortened: as §1

Cryptococcus neoformans [3] = test: CLSI broth microdilution MIC (Example 6); assay type: cell-based
Procedure, shortened: (§2)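 CLSI broth microdilution in RPMI 1640, compounds serially double-diluted, inoculum about 2×10^3 cells/mL. Incubation at 35° C for 24-48 hours. MICs determined per isolate in duplicate, with a third repeat if values differed.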

Candida albicans [4] = test: CLSI broth microdilution MIC (Example 6); assay type: cell-based
Procedure, shortened: as §2

Candida parapsilosis = test: CLSI broth microdilution MIC (Example 3); assay type: cell-based; details: Candida parapsilosis ATCC 22019
Protocol: (§3) Antifungal minimum inhibitory concentration (MIC) testing was undertaken as recommended by the CLSI. Briefly, antifungal susceptibility tests were performed for amphotericin B, robenidine (NCL812) and 5 robenidine analogs (NCL062, NCL195, NCL219, NCL259, NCL265) by standard broth microdilution method (CLSI) in RPMI 1640. Various concentrations (ranging from high to low) of the selected compounds were prepared in RPMI 1640 medium by double dilution in 96-well microtitre plates. Each well contained an inoculum of approximately 2×10^3 cells/mL. The wells without addition of drugs served as negative (no inoculum) and positive (inoculum only) growth controls. Microtitre plates were incubated at 35° C. for 24-48 hours. […] Antifungal MICs were determined for each isolate in duplicate; if the values obtained were different, the MIC test was repeated a third time. Antifungal susceptibility tests were performed for amphotericin B and NCL analogs by standard broth microdilution method (CLSI). Briefly, various concentrations (ranging from high to low) of the selected compounds were prepared in RPMI 1640 medium by double dilution in the 96-well plates. Each well contained an inoculum of approximately 2×10^3 cells/mL. The wells without addition of drugs served as a negative control. Micro plates were incubated at 35° C. for 48 hour and read spectrophotometrically at 600 nm, using a microplate reader (Multiskan-EX; Thermo Elect. Corp., USA).

Candida albicans [5] = test: CLSI broth microdilution MIC (Example 3); assay type: cell-based
Protocol: as §3

[6] = system: Candida albicans ATCC14053; test: Broth micro-dilution screen at 16 μg/mL and MIC (Example 9); assay type: cell-based; details: for MIC: C. albicans ATCC14053, test range 0.25-64 μg/mL, duplicate; for Screen at 16 μg/mL: single concentration 16 μg/mL, Growth or No growth of C. albicans ATCC14053
Protocol: The antifungal activity of 201 NCL analogs against Candida albicans ATCC14053 in vitro was investigated. A broth micro-dilution method was used, according to CLSI guidelines as described. NCL analogs were dissolved in DMSO and originally screened at a single concentration of 16 μg/mL.

C. gattii = test: CLSI broth microdilution MIC (Example 6); assay type: cell-based, Cryptococcus gattii
Procedure, shortened: as §2

Cryptococcus neoformans [7] = test: CLSI broth microdilution MIC (Example 5); assay type: cell-based
Procedure, shortened: (§4)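 Broth microdilution per CLSI in RPMI 1640 with twofold compound dilutions, inoculum about 2×10^3 cells/mL. Plates incubated at 35° C for 24-48 hours. MIC determined per isolate in duplicate, with a third repeat when the two values differed.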

Candida albicans [8] = test: CLSI broth microdilution MIC (Example 5); assay type: cell-based; details: for activity against one or more isolates of Cryptococcus neoformans and Candida albicans: summary in words
Procedure, shortened: as §4

[9] = human clinical isolate C. neoformans serotype A/D hybrid
[10] = human clinical isolate C. neoformans var grubii 16-90050434
[11] = human clinical isolate C. neoformans var grubii 17-90028233
[12] = human clinical isolate C. neoformans var grubii 17-93996464
[13] = human clinical isolate C. neoformans var grubii 17-93996964
[14] = Candida albicans ATCC 90028, 1st
[15] = Candida albicans ATCC 90028, 2nd
[16] = human clinical isolate C. gatti 17-90232099
[17] = human clinical isolate C. gattii 16-90050373
[18] = human clinical isolate C. gattii 17-90028211
[19] = human clinical isolate C. gattii 17-90028217
[20] = human clinical isolate C. gattii 17-90028242
[21] = clinical isolate C. albicans 12-93301752 Azole Resistant
[22] = clinical isolate C. albicans 14-90045999 Azole Resistant
[23] = clinical isolate C. albicans 15-45171061
[24] = clinical isolate C. albicans 15-91329871
[25] = clinical isolate C. albicans 16-24136919 Azole Resistant
[26] = clinical isolate C. albicans 16-46177400
[27] = clinical isolate C. albicans 16-90050810
[28] = clinical isolate C. albicans 16-90054237
[29] = clinical isolate C. albicans 18-144-00196
[30] = clinical isolate C. albicans 18-148-08188 Azole Resistant

In the case of `OC(Cn1cncn1)(Cn1cncn1)c1ccc(F)cc1F` [Fluconazole], the MIC (C. albicans; C. albicans 12-93301752 Azole Resistant) is reported as 32 µg/mL (≈ 104 µM), the MIC (C. albicans; C. albicans 14-90045999 Azole Resistant) is reported as 64 µg/mL (≈ 209 µM) and the MIC (C. albicans; C. albicans 16-24136919 Azole Resistant) is reported as 256 µg/mL (≈ 836 µM). It also gave an MIC (C. albicans; C. albicans 18-148-08188 Azole Resistant) of 8 µg/mL (≈ 26.1 µM).
For `[H]/N=C(\N)NN=C(CC1CCCCC1)c1ccc(Cl)cc1` [NCL259], the “MIC at 24-48 hours” value (Cryptococcus neoformans [1]; Cryptococcus neoformans SA1) was 2 µg/mL (≈ 6.83 µM), the “MIC at 24-48 hours” value (Cryptococcus neoformans [1]; Cryptococcus neoformans SA2) was 2 µg/mL (≈ 6.83 µM) and the “MIC at 24-48 hours” value (Candida albicans [2]; Candida albicans ATCC 90028) was 16 µg/mL (≈ 54.6 µM). The “MIC at 24-48 hours” value (Candida albicans [2]; Candida albicans SA3) was 16 µg/mL (≈ 54.6 µM), the “antifungal activity against the two isolates of Candida albicans” value (Candida albicans [2]) was “high antifungal activity” and the MIC (Cryptococcus neoformans [3]; Cryptococcus neoformans SA1) was 2 µg/mL (≈ 6.83 µM). It also gave an MIC (Cryptococcus neoformans [3]; Cryptococcus neoformans SA2) of 2 µg/mL (≈ 6.83 µM), an MIC (Cryptococcus neoformans [3]; [9]) of 8 µg/mL (≈ 27.3 µM) and an MIC (Cryptococcus neoformans [3]; [10]) of 8 µg/mL (≈ 27.3 µM). For the same compound, the MIC (Cryptococcus neoformans [3]; [11]) was 8 µg/mL (≈ 27.3 µM), the MIC (Cryptococcus neoformans [3]; [12]) was 8 µg/mL and 16 µg/mL and the MIC (Cryptococcus neoformans [3]; [13]) was 8 µg/mL (≈ 27.3 µM). It also gave an MIC (Candida albicans [4]; C. albicans SA3) of 16 µg/mL (≈ 54.6 µM), an MIC (Candida albicans [4]; Candida albicans ATCC 90028) of 16 µg/mL (≈ 54.6 µM) and an MIC (Candida parapsilosis; 1st) of 4 µg/mL (≈ 13.7 µM). It also gave an MIC (Candida parapsilosis; 2nd) of 4 µg/mL (≈ 13.7 µM), an MIC (Candida albicans [5]; [14]) of 4 µg/mL (≈ 13.7 µM) and an MIC (Candida albicans [5]; [15]) of 8 µg/mL (≈ 27.3 µM). The MIC (Candida albicans [5]; Candida albicans, 1st) was 4 µg/mL (≈ 13.7 µM), the MIC (Candida albicans [5]; Candida albicans, 2nd) was 4 µg/mL (≈ 13.7 µM) and the MIC [6] was 8 µg/mL and 16 µg/mL. For the same compound, the “Screen at 16 μg/mL” value [6] was “No growth”, the MIC (C. gattii; [16]) was 8 µg/mL (≈ 27.3 µM) and the MIC (C. gattii; [17]) was 8 µg/mL (≈ 27.3 µM). The MIC (C. gattii; [18]) was 8 µg/mL (≈ 27.3 µM), the MIC (C. gattii; [19]) was 8 µg/mL and 16 µg/mL and the MIC (C. gattii; [20]) was 8 µg/mL (≈ 27.3 µM). It also gave an MIC (Cryptococcus neoformans [7]; Cryptococcus neoformans SA1) of 2 µg/mL (≈ 6.83 µM), an MIC (Cryptococcus neoformans [7]; Cryptococcus neoformans SA2) of 2 µg/mL (≈ 6.83 µM) and an MIC (Candida albicans [8]; C. albicans SA3) of 16 µg/mL (≈ 54.6 µM). The MIC (Candida albicans [8]; Candida albicans ATCC 90028) was 16 µg/mL (≈ 54.6 µM), the MIC (Candida albicans [8]; [21]) was 16 µg/mL (≈ 54.6 µM) and the MIC (Candida albicans [8]; [22]) was greater than 16 µg/mL. It also gave an MIC (Candida albicans [8]; [23]) of 8 µg/mL (≈ 27.3 µM), an MIC (Candida albicans [8]; [24]) greater than 16 µg/mL and an MIC (Candida albicans [8]; [25]) of 8 µg/mL (≈ 27.3 µM). It also gave an MIC (Candida albicans [8]; [26]) greater than 16 µg/mL, an MIC (Candida albicans [8]; [27]) greater than 16 µg/mL and an MIC (Candida albicans [8]; [28]) of 32 µg/mL (≈ 109 µM). The MIC (Candida albicans [8]; [29]) was greater than 16 µg/mL, the MIC (Candida albicans [8]; [30]) was greater than 16 µg/mL and the “activity against one or more isolates of Cryptococcus neoformans and Candida albicans” value (Candida albicans [8]) was “highly active”.
In the case of `[H]/N=C(\N)NN=C(CCCCCC)c1ccc(Cl)cc1` [NCL265], the “MIC at 24-48 hours” value (Cryptococcus neoformans [1]; Cryptococcus neoformans SA1) is reported as 1 µg/mL (≈ 3.56 µM), the “MIC at 24-48 hours” value (Cryptococcus neoformans [1]; Cryptococcus neoformans SA2) is reported as 1 µg/mL (≈ 3.56 µM) and the “MIC at 24-48 hours” value (Candida albicans [2]; Candida albicans ATCC 90028) is reported as 8 µg/mL (≈ 28.5 µM). The “MIC at 24-48 hours” value (Candida albicans [2]; Candida albicans SA3) was 8 µg/mL (≈ 28.5 µM), the “antifungal activity against the two isolates of Candida albicans” value (Candida albicans [2]) was “high antifungal activity” and the MIC (Cryptococcus neoformans [3]; Cryptococcus neoformans SA1) was 1 µg/mL (≈ 3.56 µM). The MIC (Cryptococcus neoformans [3]; Cryptococcus neoformans SA2) was 1 µg/mL (≈ 3.56 µM), the MIC (Cryptococcus neoformans [3]; [9]) was 8 µg/mL (≈ 28.5 µM) and the MIC (Cryptococcus neoformans [3]; [10]) was 4 µg/mL (≈ 14.2 µM). It also gave an MIC (Cryptococcus neoformans [3]; [11]) of 8 µg/mL (≈ 28.5 µM), an MIC (Cryptococcus neoformans [3]; [12]) of 8 µg/mL (≈ 28.5 µM) and an MIC (Cryptococcus neoformans [3]; [13]) of 8 µg/mL (≈ 28.5 µM). It also gave an MIC (Candida albicans [4]; C. albicans SA3) of 8 µg/mL (≈ 28.5 µM), an MIC (Candida albicans [4]; Candida albicans ATCC 90028) of 8 µg/mL (≈ 28.5 µM) and an MIC (Candida parapsilosis; 1st) of 2 µg/mL (≈ 7.12 µM). It also gave an MIC (Candida parapsilosis; 2nd) of 2 µg/mL (≈ 7.12 µM), an MIC (Candida albicans [5]; [14]) of 2 µg/mL (≈ 7.12 µM) and an MIC (Candida albicans [5]; [15]) of 2 µg/mL (≈ 7.12 µM). It also gave an MIC (Candida albicans [5]; Candida albicans, 1st) of 2 µg/mL (≈ 7.12 µM), an MIC (Candida albicans [5]; Candida albicans, 2nd) of 4 µg/mL (≈ 14.2 µM) and an MIC [6] of 2 µg/mL (≈ 7.12 µM). For the same compound, the “Screen at 16 μg/mL” value [6] was “No growth”, the MIC (C. gattii; [16]) was 8 µg/mL (≈ 28.5 µM) and the MIC (C. gattii; [17]) was 8 µg/mL (≈ 28.5 µM). For the same compound, the MIC (C. gattii; [18]) was 8 µg/mL and 16 µg/mL, the MIC (C. gattii; [19]) was 4 µg/mL (≈ 14.2 µM) and the MIC (C. gattii; [20]) was 8 µg/mL (≈ 28.5 µM). It also gave an MIC (Cryptococcus neoformans [7]; Cryptococcus neoformans SA1) of 1 µg/mL (≈ 3.56 µM), an MIC (Cryptococcus neoformans [7]; Cryptococcus neoformans SA2) of 1 µg/mL (≈ 3.56 µM) and an MIC (Candida albicans [8]; C. albicans SA3) of 8 µg/mL (≈ 28.5 µM). It also gave an MIC (Candida albicans [8]; Candida albicans ATCC 90028) of 8 µg/mL (≈ 28.5 µM), an MIC (Candida albicans [8]; [21]) of 2 µg/mL (≈ 7.12 µM) and an MIC (Candida albicans [8]; [22]) of 16 µg/mL (≈ 57 µM). It also gave an MIC (Candida albicans [8]; [23]) of 8 µg/mL (≈ 28.5 µM), an MIC (Candida albicans [8]; [24]) of 16 µg/mL (≈ 57 µM) and an MIC (Candida albicans [8]; [25]) of 4 µg/mL (≈ 14.2 µM). The MIC (Candida albicans [8]; [26]) was 16 µg/mL (≈ 57 µM), the MIC (Candida albicans [8]; [27]) was 16 µg/mL (≈ 57 µM) and the MIC (Candida albicans [8]; [28]) was 16 µg/mL (≈ 57 µM). The MIC (Candida albicans [8]; [29]) was greater than 16 µg/mL, the MIC (Candida albicans [8]; [30]) was 16 µg/mL (≈ 57 µM) and the “activity against one or more isolates of Cryptococcus neoformans and Candida albicans” value (Candida albicans [8]) was “highly active”.
